# Measurements as given in ChEMBL document CHEMBL4725351, “Cyclic Derivative of Host-Defense Peptide IDR-1018 Improves Proteolytic Stability, Suppresses Inflammation, and Enhances In Vivo Activity” (J Med Chem, 2020).
# Calls of active or inactive are those of the source. The rule behind the calls is not given here. Where a SMILES comes first, the peptide text is derived from it. Bridges are numbered along the chain shown (N, C = ends).
# What was measured:
# Staphylococcus aureus [1] = experiment: Antibiofilm activity against 24 hrs preformed methicillin-resistant Staphylococcus aureus SAP0017 biofilm assessed as reduction in biofilm viability at 7.2 to 30.3 uM by TTC assay relative to control; type: functional; conditions: dose microM 7.2-30.3
# Staphylococcus aureus [2] = experiment: Antibiofilm activity against 24 hrs preformed methicillin-resistant Staphylococcus aureus USA300 LAC biofilm assessed as reduction in biofilm viability at 7.2 to 30.3 uM by TTC assay relative to control; type: functional; conditions: dose microM 7.2-30.3
# Staphylococcus aureus [3] = experiment: Antibiofilm activity against 24 hrs preformed methicillin-resistant Staphylococcus aureus SAP0017 biofilm assessed as reduction in biofilm viability at 100 ug/ml by TTC assay; type: functional, organism-based; conditions: dose 100.0 µg/ml
# Staphylococcus aureus [4] = experiment: Antibiofilm activity against 24 hrs preformed methicillin-resistant Staphylococcus aureus USA300 LAC biofilm assessed as reduction in biofilm viability at 100 ug/ml by TTC assay; type: functional, organism-based; conditions: dose 100.0 µg/ml
Compound,Activity (Staphylococcus aureus [1]) [%],Activity (Staphylococcus aureus [2]) [%],Activity (Staphylococcus aureus [3]),Activity (Staphylococcus aureus [4])
CC[C@H](C)[C@@H]1NC(=O)[C@H](CCCNC(=N)N)NC(=O)[C@H](C(C)C)NC(=O)[C@H](C)NC(=O)[C@H](C(C)C)NC(=O)[C@H]([C@@H](C)CC)NC(=O)[C@H](CC(C)C)NC(=O)[C@H](CCCNC(=N)N)NC(=O)[C@H](C(C)C)NC(=O)CC[C@@H](C(N)=O)NC(=O)[C@H](CCCNC(=N)N)NC(=O)[C@H](CCCNC(=N)N)NC(=O)[C@H](Cc2c[nH]c3ccccc23)NC1=O (VRLIVAVRIWRRE-NH2; lactam N-13),70,70,–,–
CN[C@H](CC(C)C)C(=O)N[C@H]1C(=O)N[C@@H](CC(N)=O)C(=O)N[C@H]2C(=O)N[C@H]3C(=O)N[C@H](C(=O)N[C@H](C(=O)O)c4cc(O)cc(O)c4-c4cc3ccc4O)[C@H](O)c3ccc(c(Cl)c3)Oc3cc2cc(c3O[C@@H]2O[C@H](CO)[C@@H](O)[C@H](O)[C@H]2O[C@H]2C[C@](C)(N)[C@H](O)[C@H](C)O2)Oc2ccc(cc2Cl)[C@H]1O [VANCOMYCIN],–,–,inactive,inactive
H-VRLIVAVRIWRR-NH2,70,70,–,–
